Activity calls are given as the source filed them. The rule behind the calls is not given here.
Columns and labels:
[1] = biological target: T1, Nuclear factor erythroid 2-related factor 2 (Homo sapiens) (UniProt Q16236); experiment: Activation of Nrf2 (unknown origin) expressed in human HepG2 cells assessed as cytoprotection against CCL4-induced cell injury by measuring increase in cell viability at 2.5 to 20 uM relative to untreated control; assay type: cell-based
T1 sequence (whole entry): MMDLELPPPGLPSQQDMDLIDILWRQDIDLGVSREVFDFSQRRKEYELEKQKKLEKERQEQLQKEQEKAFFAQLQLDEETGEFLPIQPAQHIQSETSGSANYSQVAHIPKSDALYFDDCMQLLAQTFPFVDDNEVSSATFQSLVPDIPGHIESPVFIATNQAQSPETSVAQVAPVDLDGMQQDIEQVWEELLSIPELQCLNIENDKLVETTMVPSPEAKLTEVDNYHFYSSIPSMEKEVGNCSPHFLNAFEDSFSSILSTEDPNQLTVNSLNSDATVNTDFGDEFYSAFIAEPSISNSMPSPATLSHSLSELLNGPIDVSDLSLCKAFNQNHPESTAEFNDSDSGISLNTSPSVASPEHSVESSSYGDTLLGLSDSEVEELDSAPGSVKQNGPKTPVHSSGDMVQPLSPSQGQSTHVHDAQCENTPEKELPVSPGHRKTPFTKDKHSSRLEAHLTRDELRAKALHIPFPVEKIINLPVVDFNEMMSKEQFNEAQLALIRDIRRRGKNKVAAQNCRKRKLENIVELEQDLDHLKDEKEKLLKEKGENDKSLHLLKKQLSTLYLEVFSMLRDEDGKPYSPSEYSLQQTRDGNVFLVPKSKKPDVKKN

Mus musculus [2] = experiment: Hepatoprotective activity against CCL4-induced liver damage in ICR mouse assessed as alanine aminotransferase level at 50 mg/kg, po administered once daily for 7 consecutive days followed by CCL4 challenge 6 hrs after last dose and measured 24 hrs post CCL4 injection (reference value: 1025 U/L); assay type: functional
Mus musculus [3] = experiment: Hepatoprotective activity against CCL4-induced liver damage in ICR mouse assessed as aspartate aminotransferase level at 50 mg/kg, po administered once daily for 7 consecutive days followed by CCL4 challenge 6 hrs after last dose and measured 24 hrs post CCL4 injection (reference value: 625 U/L); assay type: functional
[4] = biological target: T1, Nuclear factor erythroid 2-related factor 2 (Homo sapiens); experiment: Activation of Nrf2 (unknown origin) expressed in human HepG2 cells at 10 uM incubated for 6 hrs by ARE-driven luciferase reporter gene assay relative to untreated control; assay type: cell-based
HepG2 [5] = experiment: Cytotoxicity in human HepG2 cells expressing Nrf2/ARE-driven luciferase at 20 to 40 uM incubated for 6 hrs; assay type: cell-based; settings: hepg2, 6 h
[6] = biological target: T1, Nuclear factor erythroid 2-related factor 2 (Homo sapiens); experiment: Activation of Nrf2 (unknown origin) expressed in human HepG2 cells at 2.5 to 20 uM incubated for 6 hrs by ARE-driven luciferase reporter gene assay; assay type: cell-based
Mus musculus [7] = experiment: (§1) Hepatoprotective activity against CCL4-induced liver damage in ICR mouse assessed as LDH level at 50 mg/kg, po administered once daily for 7 consecutive days followed by CCL4 challenge 6 hrs after last dose and measured 24 hrs post CCL4 injection (reference value: 2818 U/L); assay type: functional
Mus musculus [8] = experiment: as §1, with “reduction in liver lesions by measuring neutrophil infiltration” for “LDH level”, “by hematoxylin-eosin staining based light microscopy” for “(reference value: 2818 U/L)”; assay type: functional, organism-based
Mus musculus [9] = experiment: as §1, with “reduction in liver lesions by measuring ballooning degeneration” for “LDH level”, “by hematoxylin-eosin staining based light microscopy” for “(reference value: 2818 U/L)”; assay type: functional, organism-based
Mus musculus [10] = experiment: as §1, with “reduction in liver lesions by measuring necrosis” for “LDH level”, “by hematoxylin-eosin staining based light microscopy” for “(reference value: 2818 U/L)”; assay type: functional, organism-based
Rattus norvegicus [11] = experiment: VRT (0 to t) in Sprague-Dawley rat at 50 mg/kg, po administered as single dose measured after 0.08 to 24 hrs post dose by LC/MS/MS method; assay type: ADME, organism-based; settings: in vivo
[12] = MRT (0 to infinity) in Sprague-Dawley rat at 50 mg/kg, po administered as single dose measured after 0.08 to 24 hrs post dose by LC/MS/MS method; assay type: ADME, organism-based; settings: in vivo
[13] = Apparent volume of distribution during terminal phase in Sprague-Dawley rat at 50 mg/kg, po administered as single dose measured after 0.08 to 24 hrs post dose by LC/MS/MS method; assay type: ADME, organism-based; settings: in vivo, read-out: Vz/F
[14] = MRT (0 to t) in Sprague-Dawley rat at 50 mg/kg, po administered as single dose measured after 0.08 to 24 hrs post dose by LC/MS/MS method; assay type: ADME, organism-based; settings: in vivo
[15] = Half life in Sprague-Dawley rat at 50 mg/kg, po administered as single dose measured after 0.08 to 24 hrs post dose by LC/MS/MS method; assay type: ADME, organism-based; settings: in vivo
Rattus norvegicus [16] = experiment: AUC (0 to infinity) in Sprague-Dawley rat at 50 mg/kg, po administered as single dose measured after 0.08 to 24 hrs post dose by LC/MS/MS method; assay type: ADME, organism-based; set-up: dose 50 mg/kg, time infinity, route oral; settings: in vivo
[17] = Tmax in Sprague-Dawley rat at 50 mg/kg, po administered as single dose measured after 0.08 to 24 hrs post dose by LC/MS/MS method; assay type: ADME, organism-based; settings: in vivo
HepG2 [18] = experiment: Cytotoxicity in human HepG2 cells expressing Nrf2/ARE-driven luciferase at 10 to 40 uM incubated for 6 hrs; assay type: cell-based; settings: hepg2, 6 h
[19] = biological target: T1, Nuclear factor erythroid 2-related factor 2 (Homo sapiens); experiment: Activation of Nrf2 (unknown origin) expressed in human HepG2 cells at 2.5 to 10 uM incubated for 6 hrs by ARE-driven luciferase reporter gene assay; assay type: cell-based
[20] = AUC (0 to t) in Sprague-Dawley rat at 50 mg/kg, po administered as single dose measured after 0.08 to 24 hrs post dose by LC/MS/MS method; assay type: ADME, organism-based; set-up: dose 50 mg/kg, time 0.08-24 hr, route oral; settings: in vivo
Rattus norvegicus [21] = experiment: Apparent clearance during terminal phase in Sprague-Dawley rat at 50 mg/kg, po administered as single dose measured after 0.08 to 24 hrs post dose by LC/MS/MS method; assay type: ADME, organism-based; settings: in vivo
Rattus norvegicus [22] = experiment: VRT (0 to infinity) in Sprague-Dawley rat at 50 mg/kg, po administered as single dose measured after 0.08 to 24 hrs post dose by LC/MS/MS method; assay type: ADME, organism-based; settings: in vivo
[23] = Cmax in Sprague-Dawley rat at 50 mg/kg, po administered as single dose measured after 0.08 to 24 hrs post dose by LC/MS/MS method; assay type: ADME, organism-based; set-up: dose 50 mg/kg, route oral; settings: in vivo
Mus musculus [24] = experiment: as §1, with “reduction in liver lesions by measuring necrosis” for “LDH level”, “100” for “50”, “by hematoxylin-eosin staining based light microscopy” for “(reference value: 2818 U/L)”; assay type: functional, organism-based
Mus musculus [25] = experiment: Hepatoprotective activity against CCL4-induced liver damage in ICR mouse assessed as alanine aminotransferase level at 100 mg/kg, po administered once daily for 7 consecutive days followed by CCL4 challenge 6 hrs after last dose and measured 24 hrs post CCL4 injection (reference value: 1025 U/L); assay type: functional, organism-based
Mus musculus [26] = experiment: Hepatoprotective activity against CCL4-induced liver damage in ICR mouse assessed as aspartate aminotransferase level at 100 mg/kg, po administered once daily for 7 consecutive days followed by CCL4 challenge 6 hrs after last dose and measured 24 hrs post CCL4 injection (reference value: 625 U/L); assay type: functional, organism-based
Mus musculus [27] = experiment: (§2) Hepatoprotective activity against CCL4-induced liver damage in ICR mouse assessed as LDH level at 100 mg/kg, po administered once daily for 7 consecutive days followed by CCL4 challenge 6 hrs after last dose and measured 24 hrs post CCL4 injection (reference value: 2818 U/L); assay type: functional, organism-based
Mus musculus [28] = experiment: as §2, with “reduction in liver lesions by measuring neutrophil infiltration” for “LDH level”, “by hematoxylin-eosin staining based light microscopy” for “(reference value: 2818 U/L)”; assay type: functional, organism-based
Mus musculus [29] = experiment: as §2, with “reduction in liver lesions by measuring ballooning degeneration” for “LDH level”, “by hematoxylin-eosin staining based light microscopy” for “(reference value: 2818 U/L)”; assay type: functional, organism-based

| fold change (FC) [4] | Activity [6] | VRT(t) (Rattus norvegicus [11]) | MRT inf [12] | Vd/F [13] | MRT last [14] | half-life [15] | AUC (Rattus norvegicus [16]) | Tmax [17] | AUC(0-t) [20] | CLz/F (Rattus norvegicus [21]) | VRT (Rattus norvegicus [22]) | Compound | Activity [1] | Activity (Mus musculus [2]) | Activity (Mus musculus [3]) | Activity (HepG2 [5]) | Activity (Mus musculus [7]) | Activity (Mus musculus [8]) | Activity (Mus musculus [9]) | Activity (Mus musculus [10]) | also measured |
| --- | --- | --- | --- | --- | --- | --- | --- | --- | --- | --- | --- | --- | --- | --- | --- | --- | --- | --- | --- | --- | --- |
| 5.17 | Dose-dependent effect |  |  |  |  |  |  |  |  |  |  | COc1c(/C=C/C(=O)c2ccc(O)cc2)ccc(O)c1O | > 60% | 70 - 100 U/L | 150 - 180 U/L | Toxic | 800 - 1200 U/L | Active | Active | Active |  |
| 4.07 |  | 40.43 hr2 | 14.5 h | 370 L/kg | 8.48 h | 10.3 h | 993.88 ng·h/mL | 2.5 h | 837 ng·h/mL | 389.8 mL/min/kg | 256.28 hr2 | C=CC(C)(C)c1cc(/C=C/C(=O)c2ccc(O)cc2)c(OC)cc1O [LICOAGROCHACONE A] | > 60% | 70 - 100 U/L | 150 - 180 U/L |  | 800 - 1200 U/L | Active | Active | Active | Activity (HepG2 [18]): Toxic; Activity [19]: Dose-dependent effect; Cmax [23]: 96.8 ng/mL |
|  |  |  |  |  |  |  |  |  |  |  |  | SILYMARIN |  |  |  |  |  |  |  |  | Activity (Mus musculus [24]): Active; Activity (Mus musculus [25]): 70 to 100 U/L; Activity (Mus musculus [26]): 150 to 180 U/L; Activity (Mus musculus [27]): 800 to 1200 U/L; Activity (Mus musculus [28]): Active; Activity (Mus musculus [29]): Active |
| 4.09 | Dose-dependent effect | 9.97 hr2 | 3.98 h | 154 L/kg | 3.98 h | 7.32 h | 1154.92 ng·h/mL | 0.5 h | 686 ng·h/mL | 349.5 mL/min/kg | 217.15 hr2 | COc1cc(O)ccc1/C=C/C(=O)c1ccc(O)cc1 [ECHINATIN] | > 60% | 70 - 100 U/L | 150 - 180 U/L | Toxic | 800 - 1200 U/L | Active | Active | Active | Cmax [23]: 228 ng/mL |
